Drawing on article PMC10285409, “Identification and validation of G protein-coupled receptors modulating flow-dependent signaling pathways in vascular endothelial cells” (Frontiers in Molecular Biosciences, 2023), this text covers EC50 for 2 molecules.

This assay deals with T1, LGR4 (Homo sapiens, UniProt Q9BXB1).
T1 sequence (Q9BXB1 25-951): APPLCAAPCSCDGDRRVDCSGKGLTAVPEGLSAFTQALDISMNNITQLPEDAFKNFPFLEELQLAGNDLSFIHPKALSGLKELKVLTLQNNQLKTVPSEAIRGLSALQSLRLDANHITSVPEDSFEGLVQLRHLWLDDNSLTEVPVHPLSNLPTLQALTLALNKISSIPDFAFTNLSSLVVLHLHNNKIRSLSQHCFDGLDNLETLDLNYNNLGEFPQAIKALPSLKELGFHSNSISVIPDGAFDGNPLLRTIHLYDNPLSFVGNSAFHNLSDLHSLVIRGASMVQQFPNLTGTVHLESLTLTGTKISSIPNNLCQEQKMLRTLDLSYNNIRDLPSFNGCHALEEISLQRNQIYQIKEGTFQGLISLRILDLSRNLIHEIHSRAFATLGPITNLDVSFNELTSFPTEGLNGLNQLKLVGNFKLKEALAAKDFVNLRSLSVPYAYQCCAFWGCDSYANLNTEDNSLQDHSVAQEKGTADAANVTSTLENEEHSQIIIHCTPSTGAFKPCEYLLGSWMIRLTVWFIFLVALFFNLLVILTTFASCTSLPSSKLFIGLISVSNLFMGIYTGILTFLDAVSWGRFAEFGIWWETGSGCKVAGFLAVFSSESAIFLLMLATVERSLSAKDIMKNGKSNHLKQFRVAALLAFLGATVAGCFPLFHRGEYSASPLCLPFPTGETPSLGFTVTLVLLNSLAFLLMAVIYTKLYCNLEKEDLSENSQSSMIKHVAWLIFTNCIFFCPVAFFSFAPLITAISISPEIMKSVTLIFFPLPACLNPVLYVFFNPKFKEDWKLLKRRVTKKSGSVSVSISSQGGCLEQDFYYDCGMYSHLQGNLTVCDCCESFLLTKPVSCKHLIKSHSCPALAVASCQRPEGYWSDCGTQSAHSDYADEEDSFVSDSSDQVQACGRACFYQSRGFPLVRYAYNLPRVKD
Description: beta-arrestin recruitment enzyme complementation in CHO-K1 LGR4 cells; KLF2-luciferase activity lost on LGR4 knockdown. In kind it is cell-based. (In general: Arrestin recruitment assays detect the binding of arrestin to an activated receptor.)

The structures appear in SMILES notation. pEC50: −log10 of the molar value.

Broadly, the pEC50 is the EC50 on a negative log10 scale, so that one unit is a factor of ten. Consider `CCCCN(Cc1ccc(-c2ccccc2-c2nnn[nH]2)cc1)C(=O)NCc1ccc(Cl)cc1` [Compound 1], for which the negative-log EC50 (pEC50) was 4.57.
For the molecule `CCCCOC(=O)c1c(Cl)nc(CCCC)n1Cc1cccc2c1ccn2-c1ccccc1-c1nn[nH]n1` [Compound 2], the pEC50 is 5.30.
